Experimental data from patent publication US6740760B2, “D-proline derivatives” (Hoffmann-La Roche Inc., priority 1997, dated 2004).

Tests used:
B. fragilis = conditions: disclosed in WO 97/10225; cited from earlier work

| SMILES | melting point | antibacterial activity against B. fragilis (B. fragilis) |
| --- | --- | --- |
| O=C(O)[C@H]1CCCN1C(=O)Cc1ccc(CC(=O)N2CCC[C@@H]2C(=O)O)cc1 | 210 to 214 °C |  |
| C[C@@H](CS)C(=O)N1CCC[C@@H]1C(=O)O [1-[(R)3-Mercapto-2-methyl-propionyl]-(R)-pyrrolidine-2-carboxylic acid] |  | antibacterial activity |
| C[C@H](CS)C(=O)N1CCC[C@@H]1C(=O)O [1-[(S)3-Mercapto-2-methyl-propionyl]-(R)-pyrrolidine-2-carboxylic acid] |  | antibacterial activity |
